Earlier results on 2 molecules are cited in US7282218B2, “pH sensitive polymer for inhibiting transformation in drugs” (Council of Scientific and Industrial Research, priority 2003, dated 2007).

For series [1] the following is noted: humans.
The conditions of series [2]: amorphous vs crystalline.

As for `CO/N=C(\C(=O)N[C@@H]1C(=O)N2C(C(=O)OC(C)OC(C)=O)=C(COC(N)=O)CS[C@H]12)c1ccco1` (some centres unmarked) [Cefuroxime axetil], the bioavailability in series [1] is listed as 32-50%. Turning to `CO[C@@H]1[C@@H](OC(N)=O)[C@@H](O)[C@H](Oc2ccc3c(O)c(NC(=O)c4ccc(O)c(CC=C(C)C)c4)c(=O)oc3c2C)OC1(C)C` [novobiocin], in series [2], the “solubility of amorphous form relative to the crystalline form” value is listed as 10 times.
